One molecule from patent US10041953B2, “Mass spectrometric determination of drug resistance” (priority 2013, dated 2018) can be followed below.

In brackets after ≈: the same amount, converted by molar mass.

Format in all cases: cell-based
Experiment [1] has as its system salmonella wild type (13471). The experiment is described as follows: MIC for ciprofloxacin, wild type (13471). The following applies: wild type gyrase.
The test system of experiment [2] is Salmonella strain 17109. The experiment is described as follows: MIC for ciprofloxacin, Salmonella strain 17109. As to conditions: Salmonella strain 17109, one gyrase amino acid substitution.
For experiment [3], the system named is Salmonella strain 6836. The experiment is described as follows: MIC for ciprofloxacin, Salmonella strain 6836. The following applies: Salmonella strain 6836, double gyrase mutation.
Experiment [4] deals with Salmonella strain 19222. As to the kind of experiment: MIC for ciprofloxacin, Salmonella strain 19222. The following applies: Salmonella strain 19222, one gyrase amino acid substitution.

With `O=C(O)c1cn(C2CC2)c2cc(N3CCNCC3)c(F)cc2c1=O` [ciprofloxacin], the MIC (usually the lowest concentration that inhibits growth of the organism) was determined as 0.03 µg/mL (≈ 0.0905 µM) in experiment [1], 1 µg/mL (≈ 3.02 µM) in experiment [2], 32 µg/mL (≈ 96.6 µM) in experiment [3] and 1 µg/mL (≈ 3.02 µM) in experiment [4].
